Measurements: article PMC3427421 (2012)

Target: NR2A-containing NMDA receptor (NR2A subunit) (Rattus norvegicus, UniProt Q00959)
Assay type: cell-based

NR2A-containing NMDA receptor (NR2A subunit), sequence (Q00959 23-1464, other chains not shown): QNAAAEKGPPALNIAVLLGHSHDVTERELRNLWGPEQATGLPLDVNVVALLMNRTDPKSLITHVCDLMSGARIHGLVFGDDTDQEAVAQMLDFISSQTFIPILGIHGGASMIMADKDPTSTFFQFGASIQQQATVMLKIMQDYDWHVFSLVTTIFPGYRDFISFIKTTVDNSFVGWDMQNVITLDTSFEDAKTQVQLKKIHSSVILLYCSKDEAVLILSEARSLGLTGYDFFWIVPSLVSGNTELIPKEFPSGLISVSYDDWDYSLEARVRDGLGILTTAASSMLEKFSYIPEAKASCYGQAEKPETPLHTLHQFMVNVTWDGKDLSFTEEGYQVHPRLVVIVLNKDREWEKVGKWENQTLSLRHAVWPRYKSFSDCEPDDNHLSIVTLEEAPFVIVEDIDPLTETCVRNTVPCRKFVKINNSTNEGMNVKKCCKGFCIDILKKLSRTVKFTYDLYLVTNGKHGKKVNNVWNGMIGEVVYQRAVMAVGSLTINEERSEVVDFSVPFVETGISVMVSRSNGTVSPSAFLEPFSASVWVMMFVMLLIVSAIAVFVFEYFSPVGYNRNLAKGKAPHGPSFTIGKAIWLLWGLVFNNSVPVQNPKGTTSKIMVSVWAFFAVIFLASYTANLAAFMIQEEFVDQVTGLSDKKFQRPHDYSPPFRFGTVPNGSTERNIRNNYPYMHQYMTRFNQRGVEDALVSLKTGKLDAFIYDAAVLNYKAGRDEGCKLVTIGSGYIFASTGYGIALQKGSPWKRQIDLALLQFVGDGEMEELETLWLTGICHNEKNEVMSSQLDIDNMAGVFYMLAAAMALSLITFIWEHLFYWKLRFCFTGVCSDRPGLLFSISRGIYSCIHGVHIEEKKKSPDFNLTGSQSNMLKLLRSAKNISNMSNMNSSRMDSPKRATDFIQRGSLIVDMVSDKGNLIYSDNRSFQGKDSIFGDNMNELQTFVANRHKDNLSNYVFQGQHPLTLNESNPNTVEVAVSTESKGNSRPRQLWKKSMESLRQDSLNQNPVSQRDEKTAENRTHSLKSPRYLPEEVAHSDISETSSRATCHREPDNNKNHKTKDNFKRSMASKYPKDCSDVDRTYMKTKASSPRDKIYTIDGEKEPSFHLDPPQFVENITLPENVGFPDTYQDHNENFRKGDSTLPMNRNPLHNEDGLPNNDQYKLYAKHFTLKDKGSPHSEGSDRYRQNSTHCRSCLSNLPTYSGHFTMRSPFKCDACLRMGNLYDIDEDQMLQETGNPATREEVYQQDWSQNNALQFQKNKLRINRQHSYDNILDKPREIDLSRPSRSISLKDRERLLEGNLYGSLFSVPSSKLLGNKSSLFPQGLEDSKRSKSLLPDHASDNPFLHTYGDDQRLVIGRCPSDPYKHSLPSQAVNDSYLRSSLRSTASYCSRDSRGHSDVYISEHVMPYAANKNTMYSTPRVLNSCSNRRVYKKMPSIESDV

## C[C@H](NC(c1cccc2[nH]c(=O)c(=O)[nH]c12)P(=O)(O)O)c1ccc(Br)cc1 (stereo partly drawn) [PEAQX, ({[(1S)-1-(4-bromophenyl)ethyl]amino}-(2,3-dioxo-1,4-dihydroquinoxalin-5-yl)methyl)phosphonic acid]
  IC50: 130 ± 40 nM
